According to article PMC9386913 (Arthritis Research & Therapy, 2022):

Test: Phase I multiple ascending-dose study: safety and tolerability (treatment-emergent adverse events)
Format: in vivo, human (healthy volunteers)
Protocol: A single-center, randomized, double-blind, placebo-controlled phase I study (NCT03554993) with a MAD component was performed in the UK between May 2018 and July 2019. Thirty-seven healthy volunteers of any race, ethnicity, or sex were enrolled. The inclusion criteria were 18 to 55 years of age inclusive, body mass index 18 to 33 kg/m^2, and physical examination by the investigator without clinically significant findings. Subjects were excluded if any clinically significant medical history, laboratory abnormality, psychiatric illness, or other condition existed that would place the subject at unacceptable risk by participating in the study. Pregnancy prevention guidance was provided as per Clinical Trial Facilitation Group recommendations. Subjects were randomly assigned to daily oral doses of CC-99677 or placebo. Subjects were dosed daily for 14 days. […] Both the investigator and subjects were blinded to the treatment arm. Safety assessments, including physical examinations, clinical laboratory tests, and collection of adverse events (AEs) were performed and graded using MedDRA version 22.0 and the US Food and Drug Administration (FDA) Toxicity Grading Scale for Healthy Adult and Adolescent Volunteers. The primary outcome of this trial was the safety and tolerability of multiple daily doses of CC-99677.

CCOCc1cnc(Cl)nc1Oc1ccc2c(ccc3sc4c(c32)NC[C@@H](C)NC4=O)n1 [CC-99677]
Subjects with ≥ 1 treatment-emergent AE (10 mg daily, 14 days (n = 5)): 3 (60.0) n (%)
TEAE: Abdominal pain (10 mg daily, 14 days (n = 5)): 0 n (%)
TEAE: Alanine aminotransferase increased (10 mg daily, 14 days (n = 5)): 0 n (%)
TEAE: Aspartate aminotransferase increased (10 mg daily, 14 days (n = 5)): 0 n (%)
TEAE: Back pain (10 mg daily, 14 days (n = 5)): 0 n (%)
TEAE: Blood creatine phosphokinase increased (10 mg daily, 14 days (n = 5)): 0 n (%)
TEAE: Catheter site related reaction (10 mg daily, 14 days (n = 5)): 0 n (%)
TEAE: Chapped lips (10 mg daily, 14 days (n = 5)): 0 n (%)
TEAE: Constipation (10 mg daily, 14 days (n = 5)): 0 n (%)
TEAE: Diarrhea (10 mg daily, 14 days (n = 5)): 0 n (%)
TEAE: Dizziness (10 mg daily, 14 days (n = 5)): 1 (20.0) n (%)
TEAE: Dysmenorrhea (10 mg daily, 14 days (n = 5)): 0 n (%)
TEAE: Dyspepsia (10 mg daily, 14 days (n = 5)): 1 (20.0) n (%)
TEAE: Ear and labyrinth disorders (10 mg daily, 14 days (n = 5)): 1 (20.0) n (%)
TEAE: Ear pain (10 mg daily, 14 days (n = 5)): 1 (20.0) n (%)
TEAE: Flushing (10 mg daily, 14 days (n = 5)): 0 n (%)
TEAE: Gastrointestinal disorders (10 mg daily, 14 days (n = 5)): 2 (40.0) n (%)
TEAE: General disorders and administration site conditions (10 mg daily, 14 days (n = 5)): 2 (40.0) n (%)
TEAE: Headache (10 mg daily, 14 days (n = 5)): 2 (40.0) n (%)
TEAE: Hot flush (10 mg daily, 14 days (n = 5)): 0 n (%)
TEAE: Infections and infestations (10 mg daily, 14 days (n = 5)): 1 (20.0) n (%)
TEAE: Injury, poisoning, and procedural complications (10 mg daily, 14 days (n = 5)): 1 (20.0) n (%)
TEAE: Insomnia (10 mg daily, 14 days (n = 5)): 1 (20.0) n (%)
TEAE: Investigations (10 mg daily, 14 days (n = 5)): 0 n (%)
TEAE: Muscle strain (10 mg daily, 14 days (n = 5)): 1 (20.0) n (%)
TEAE: Musculoskeletal and connective tissue disorders (10 mg daily, 14 days (n = 5)): 0 n (%)
TEAE: Musculoskeletal pain (10 mg daily, 14 days (n = 5)): 0 n (%)
TEAE: Myalgia (10 mg daily, 14 days (n = 5)): 0 n (%)
TEAE: Nasopharyngitis (10 mg daily, 14 days (n = 5)): 0 n (%)
TEAE: Nausea (10 mg daily, 14 days (n = 5)): 2 (40.0) n (%)
TEAE: Nervous system disorders (10 mg daily, 14 days (n = 5)): 2 (40.0) n (%)
TEAE: Oropharyngeal pain (10 mg daily, 14 days (n = 5)): 1 (20.0) n (%)
TEAE: Psychiatric disorders (10 mg daily, 14 days (n = 5)): 1 (20.0) n (%)
TEAE: Rash pustular (10 mg daily, 14 days (n = 5)): 1 (20.0) n (%)
TEAE: Rectal hemorrhage (10 mg daily, 14 days (n = 5)): 0 n (%)
TEAE: Reproductive system and breast disorders (10 mg daily, 14 days (n = 5)): 0 n (%)
TEAE: Respiratory, thoracic, and mediastinal disorders (10 mg daily, 14 days (n = 5)): 1 (20.0) n (%)
TEAE: Sensation of foreign body (10 mg daily, 14 days (n = 5)): 1 (20.0) n (%)
TEAE: Vascular disorders (10 mg daily, 14 days (n = 5)): 0 n (%)
TEAE: Vessel puncture site pain (10 mg daily, 14 days (n = 5)): 1 (20.0) n (%)
TEAE: Vessel puncture site reaction (10 mg daily, 14 days (n = 5)): 0 n (%)
Subjects with ≥ 1 treatment-emergent AE (30 mg daily, 14 days (n = 6)): 4 (66.7) n (%)
TEAE: Abdominal pain (30 mg daily, 14 days (n = 6)): 0 n (%)
TEAE: Alanine aminotransferase increased (30 mg daily, 14 days (n = 6)): 0 n (%)
TEAE: Aspartate aminotransferase increased (30 mg daily, 14 days (n = 6)): 0 n (%)
TEAE: Back pain (30 mg daily, 14 days (n = 6)): 0 n (%)
TEAE: Blood creatine phosphokinase increased (30 mg daily, 14 days (n = 6)): 0 n (%)
TEAE: Catheter site related reaction (30 mg daily, 14 days (n = 6)): 0 n (%)
TEAE: Chapped lips (30 mg daily, 14 days (n = 6)): 1 (16.7) n (%)
TEAE: Constipation (30 mg daily, 14 days (n = 6)): 0 n (%)
TEAE: Diarrhea (30 mg daily, 14 days (n = 6)): 0 n (%)
TEAE: Dizziness (30 mg daily, 14 days (n = 6)): 1 (16.7) n (%)
TEAE: Dysmenorrhea (30 mg daily, 14 days (n = 6)): 0 n (%)
TEAE: Dyspepsia (30 mg daily, 14 days (n = 6)): 0 n (%)
TEAE: Ear and labyrinth disorders (30 mg daily, 14 days (n = 6)): 0 n (%)
TEAE: Ear pain (30 mg daily, 14 days (n = 6)): 0 n (%)
TEAE: Flushing (30 mg daily, 14 days (n = 6)): 0 n (%)
TEAE: Gastrointestinal disorders (30 mg daily, 14 days (n = 6)): 2 (33.3) n (%)
TEAE: General disorders and administration site conditions (30 mg daily, 14 days (n = 6)): 0 n (%)
TEAE: Headache (30 mg daily, 14 days (n = 6)): 0 n (%)
TEAE: Hot flush (30 mg daily, 14 days (n = 6)): 0 n (%)
TEAE: Infections and infestations (30 mg daily, 14 days (n = 6)): 1 (16.7) n (%)
TEAE: Injury, poisoning, and procedural complications (30 mg daily, 14 days (n = 6)): 0 n (%)
TEAE: Insomnia (30 mg daily, 14 days (n = 6)): 0 n (%)
TEAE: Investigations (30 mg daily, 14 days (n = 6)): 0 n (%)
TEAE: Muscle strain (30 mg daily, 14 days (n = 6)): 0 n (%)
TEAE: Musculoskeletal and connective tissue disorders (30 mg daily, 14 days (n = 6)): 2 (33.3) n (%)
TEAE: Musculoskeletal pain (30 mg daily, 14 days (n = 6)): 0 n (%)
TEAE: Myalgia (30 mg daily, 14 days (n = 6)): 2 (33.3) n (%)
TEAE: Nasopharyngitis (30 mg daily, 14 days (n = 6)): 1 (16.7) n (%)
TEAE: Nausea (30 mg daily, 14 days (n = 6)): 0 n (%)
TEAE: Nervous system disorders (30 mg daily, 14 days (n = 6)): 1 (16.7) n (%)
TEAE: Oropharyngeal pain (30 mg daily, 14 days (n = 6)): 0 n (%)
TEAE: Psychiatric disorders (30 mg daily, 14 days (n = 6)): 0 n (%)
TEAE: Rash pustular (30 mg daily, 14 days (n = 6)): 0 n (%)
TEAE: Rectal hemorrhage (30 mg daily, 14 days (n = 6)): 1 (16.7) n (%)
TEAE: Reproductive system and breast disorders (30 mg daily, 14 days (n = 6)): 0 n (%)
TEAE: Respiratory, thoracic, and mediastinal disorders (30 mg daily, 14 days (n = 6)): 0 n (%)
TEAE: Sensation of foreign body (30 mg daily, 14 days (n = 6)): 0 n (%)
TEAE: Vascular disorders (30 mg daily, 14 days (n = 6)): 0 n (%)
TEAE: Vessel puncture site pain (30 mg daily, 14 days (n = 6)): 0 n (%)
TEAE: Vessel puncture site reaction (30 mg daily, 14 days (n = 6)): 0 n (%)
Subjects with ≥ 1 treatment-emergent AE (60 mg daily, 14 days (n = 6)): 1 (16.7) n (%)
TEAE: Abdominal pain (60 mg daily, 14 days (n = 6)): 0 n (%)
TEAE: Alanine aminotransferase increased (60 mg daily, 14 days (n = 6)): 0 n (%)
TEAE: Aspartate aminotransferase increased (60 mg daily, 14 days (n = 6)): 0 n (%)
TEAE: Back pain (60 mg daily, 14 days (n = 6)): 0 n (%)
TEAE: Blood creatine phosphokinase increased (60 mg daily, 14 days (n = 6)): 0 n (%)
TEAE: Catheter site related reaction (60 mg daily, 14 days (n = 6)): 0 n (%)
TEAE: Chapped lips (60 mg daily, 14 days (n = 6)): 0 n (%)
TEAE: Constipation (60 mg daily, 14 days (n = 6)): 0 n (%)
TEAE: Diarrhea (60 mg daily, 14 days (n = 6)): 0 n (%)
TEAE: Dizziness (60 mg daily, 14 days (n = 6)): 0 n (%)
TEAE: Dysmenorrhea (60 mg daily, 14 days (n = 6)): 0 n (%)
TEAE: Dyspepsia (60 mg daily, 14 days (n = 6)): 0 n (%)
TEAE: Ear and labyrinth disorders (60 mg daily, 14 days (n = 6)): 0 n (%)
TEAE: Ear pain (60 mg daily, 14 days (n = 6)): 0 n (%)
TEAE: Flushing (60 mg daily, 14 days (n = 6)): 0 n (%)
TEAE: Gastrointestinal disorders (60 mg daily, 14 days (n = 6)): 0 n (%)
TEAE: General disorders and administration site conditions (60 mg daily, 14 days (n = 6)): 0 n (%)
TEAE: Headache (60 mg daily, 14 days (n = 6)): 1 (16.7) n (%)
TEAE: Hot flush (60 mg daily, 14 days (n = 6)): 0 n (%)
TEAE: Infections and infestations (60 mg daily, 14 days (n = 6)): 0 n (%)
TEAE: Injury, poisoning, and procedural complications (60 mg daily, 14 days (n = 6)): 0 n (%)
TEAE: Insomnia (60 mg daily, 14 days (n = 6)): 0 n (%)
